Assays:
[1] = molecular target: Proto-oncogene tyrosine-protein kinase ROS (Homo sapiens) (UniProt P08922); conditions: Compound concentration 1000.0 nM
[2] = molecular target: Serine/threonine-protein kinase 33 (Homo sapiens) (UniProt Q9BYT3); conditions: Compound concentration 1000.0 nM
[3] = molecular target: 5-hydroxytryptamine receptor 1D (Homo sapiens) (UniProt P28221); conditions: Compound concentration 10.0 uM
[4] = molecular target: Serine/threonine-protein kinase PAK 6 (Homo sapiens) (UniProt Q9NQU5); conditions: Compound concentration 1000.0 nM
[5] = molecular target: Focal adhesion kinase 1 (Homo sapiens) (UniProt Q05397); conditions: Compound concentration 1000.0 nM
[6] = molecular target: Receptor-interacting serine/threonine-protein kinase 2 (Homo sapiens) (UniProt O43353); conditions: Compound concentration 1000.0 nM
[7] = molecular target: Tyrosine-protein kinase ITK/TSK (Homo sapiens) (UniProt Q08881); conditions: Compound concentration 1000.0 nM
[8] = molecular target: Epithelial discoidin domain-containing receptor 1 (Homo sapiens) (UniProt Q08345); conditions: Compound concentration 1000.0 nM
[9] = molecular target: Serine/threonine-protein kinase 10 (Homo sapiens) (UniProt O94804); conditions: Compound concentration 1000.0 nM
[10] = molecular target: Proto-oncogene tyrosine-protein kinase Src (Homo sapiens) (UniProt P12931); conditions: Compound concentration 1000.0 nM
[11] = tested on: Tyrosine-protein kinase ABL1 (Homo sapiens), P00519 [T315I]; conditions: Compound concentration 1000.0 nM
[12] = molecular target: Serine/threonine-protein kinase PRP4 homolog (Homo sapiens) (UniProt Q13523); conditions: Compound concentration 1000.0 nM
[13] = molecular target: Serine/threonine-protein kinase D1 (Homo sapiens) (UniProt Q15139); conditions: Compound concentration 1000.0 nM
[14] = molecular target: Receptor tyrosine-protein kinase erbB-2 (Homo sapiens) (UniProt P04626); conditions: Compound concentration 1000.0 nM
[15] = molecular target: Fibroblast growth factor receptor 2 (Homo sapiens) (UniProt P21802); conditions: Compound concentration 1000.0 nM
[16] = tested on: Receptor-type tyrosine-protein kinase FLT3 (Homo sapiens), P36888 [D835H]; conditions: Compound concentration 1000.0 nM
[17] = molecular target: NUAK family SNF1-like kinase 2 (Homo sapiens) (UniProt Q9H093); conditions: Compound concentration 1000.0 nM
[18] = molecular target: Dual specificity protein kinase CLK4 (Homo sapiens) (UniProt Q9HAZ1); conditions: Compound concentration 1000.0 nM
[19] = molecular target: TGF-beta receptor type-1 (Homo sapiens) (UniProt P36897); conditions: Compound concentration 1000.0 nM
[20] = molecular target: Mitogen-activated protein kinase kinase kinase kinase 3 (Homo sapiens) (UniProt Q8IVH8); conditions: Compound concentration 1000.0 nM
[21] = molecular target: Cytoplasmic tyrosine-protein kinase BMX (Homo sapiens) (UniProt P51813); conditions: Compound concentration 1000.0 nM
[22] = molecular target: Cyclin-dependent kinase 11B (Homo sapiens) (UniProt P21127); conditions: Compound concentration 1000.0 nM
[23] = molecular target: Bone morphogenetic protein receptor type-2 (Homo sapiens) (UniProt Q13873); conditions: Compound concentration 1000.0 nM
[24] = molecular target: Wee1-like protein kinase (Homo sapiens) (UniProt P30291); conditions: Compound concentration 1000.0 nM
[25] = molecular target: Activin receptor type-1-like (Homo sapiens) (UniProt P37023); conditions: Compound concentration 1000.0 nM
[26] = tested on: Tyrosine-protein kinase ABL1 (Homo sapiens), P00519 [F317L]; conditions: Compound concentration 1000.0 nM
[27] = molecular target: Serine/threonine-protein kinase 25 (Homo sapiens) (UniProt O00506); conditions: Compound concentration 1000.0 nM
[28] = molecular target: Platelet-derived growth factor receptor alpha (Homo sapiens) (UniProt P16234); conditions: Compound concentration 1000.0 nM
[29] = molecular target: Cyclin-dependent kinase 4 (Homo sapiens) (UniProt P11802); conditions: Compound concentration 1000.0 nM
[30] = molecular target: G protein-coupled receptor kinase 3 (Homo sapiens) (UniProt P35626); conditions: Compound concentration 1000.0 nM
[31] = molecular target: Mitogen-activated protein kinase kinase kinase 19 (Homo sapiens) (UniProt Q56UN5); conditions: Compound concentration 1000.0 nM
[32] = molecular target: Myosin light chain kinase family member 4 (Homo sapiens) (UniProt Q86YV6); conditions: Compound concentration 1000.0 nM
[33] = molecular target: Mitogen-activated protein kinase kinase kinase 13 (Homo sapiens) (UniProt O43283); conditions: Compound concentration 1000.0 nM
[34] = molecular target: 3-phosphoinositide-dependent protein kinase 1 (Homo sapiens) (UniProt O15530); conditions: Compound concentration 1000.0 nM
[35] = tested on: Epidermal growth factor receptor (Homo sapiens), P00533 [G719S]; conditions: Compound concentration 1000.0 nM
[36] = molecular target: Tyrosine-protein kinase Srms (Homo sapiens) (UniProt Q9H3Y6); conditions: Compound concentration 1000.0 nM
[37] = molecular target: Hepatocyte growth factor receptor (Homo sapiens) (UniProt P08581); conditions: Compound concentration 1000.0 nM
[38] = molecular target: Alpha-2C adrenergic receptor (Homo sapiens) (UniProt P18825); conditions: Compound concentration 10.0 uM
[39] = molecular target: Cyclin-dependent kinase 7 (Homo sapiens, UniProt P50613); conditions: Compound concentration 1000.0 nM
[40] = molecular target: Phosphatidylinositol 4,5-bisphosphate 3-kinase catalytic subunit delta isoform (Homo sapiens) (UniProt O00329); conditions: Compound concentration 1000.0 nM
[41] = molecular target: Serine/threonine-protein kinase Sgk1 (Homo sapiens) (UniProt O00141); conditions: Compound concentration 1000.0 nM
[42] = molecular target: LIM domain kinase 2 (Homo sapiens) (UniProt P53671); conditions: Compound concentration 1000.0 nM
[43] = molecular target: Serine/threonine-protein kinase B-raf (Homo sapiens) (UniProt P15056); conditions: Compound concentration 1000.0 nM
[44] = molecular target: Cyclin-dependent kinase 3 (Homo sapiens) (UniProt Q00526); conditions: Compound concentration 1000.0 nM
Aurora kinase B = Aurora kinase B (Homo sapiens, UniProt Q96GD4); conditions: Compound concentration 1000.0 nM
[45] = molecular target: Tyrosine-protein kinase SYK (Homo sapiens) (UniProt P43405); conditions: Compound concentration 1000.0 nM

Sequence of 3-phosphoinositide-dependent protein kinase 1 (Homo sapiens) (O15530 whole entry): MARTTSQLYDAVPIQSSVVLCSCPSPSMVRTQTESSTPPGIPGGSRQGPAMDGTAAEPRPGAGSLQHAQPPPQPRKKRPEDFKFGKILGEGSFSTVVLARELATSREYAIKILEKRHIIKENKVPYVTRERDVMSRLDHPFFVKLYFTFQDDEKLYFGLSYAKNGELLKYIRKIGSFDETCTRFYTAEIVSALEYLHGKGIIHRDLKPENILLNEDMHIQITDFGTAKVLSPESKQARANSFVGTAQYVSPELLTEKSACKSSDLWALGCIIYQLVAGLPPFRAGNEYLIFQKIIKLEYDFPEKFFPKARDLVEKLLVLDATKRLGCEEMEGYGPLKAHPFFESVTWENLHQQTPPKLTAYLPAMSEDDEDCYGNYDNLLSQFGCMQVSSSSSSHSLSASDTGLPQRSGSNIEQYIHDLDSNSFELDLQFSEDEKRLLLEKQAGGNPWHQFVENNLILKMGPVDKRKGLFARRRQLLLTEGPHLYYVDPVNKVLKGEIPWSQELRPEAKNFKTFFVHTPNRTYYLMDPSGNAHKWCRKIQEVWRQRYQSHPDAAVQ
Sequence of Cyclin-dependent kinase 11B (Homo sapiens) (P21127 whole entry): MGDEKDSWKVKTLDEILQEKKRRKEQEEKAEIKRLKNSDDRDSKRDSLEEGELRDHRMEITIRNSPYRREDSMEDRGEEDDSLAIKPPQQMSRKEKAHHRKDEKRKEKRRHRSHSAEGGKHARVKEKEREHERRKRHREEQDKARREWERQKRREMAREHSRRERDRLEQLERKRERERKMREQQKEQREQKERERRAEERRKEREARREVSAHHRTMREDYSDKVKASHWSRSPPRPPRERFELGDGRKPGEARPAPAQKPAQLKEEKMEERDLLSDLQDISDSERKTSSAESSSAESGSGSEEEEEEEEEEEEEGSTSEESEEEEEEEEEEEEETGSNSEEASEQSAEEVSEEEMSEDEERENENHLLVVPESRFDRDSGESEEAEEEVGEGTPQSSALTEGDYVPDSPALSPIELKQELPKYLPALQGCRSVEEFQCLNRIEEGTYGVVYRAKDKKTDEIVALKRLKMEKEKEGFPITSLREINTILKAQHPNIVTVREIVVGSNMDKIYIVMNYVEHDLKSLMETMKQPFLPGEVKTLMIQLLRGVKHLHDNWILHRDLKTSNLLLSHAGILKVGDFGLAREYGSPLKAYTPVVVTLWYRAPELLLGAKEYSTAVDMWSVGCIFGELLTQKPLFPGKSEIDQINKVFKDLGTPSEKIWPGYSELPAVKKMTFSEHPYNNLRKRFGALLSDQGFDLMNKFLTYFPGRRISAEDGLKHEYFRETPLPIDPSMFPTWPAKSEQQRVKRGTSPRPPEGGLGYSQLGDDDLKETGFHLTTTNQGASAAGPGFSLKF
Sequence of Mitogen-activated protein kinase kinase kinase kinase 3 (Homo sapiens) (Q8IVH8 whole entry): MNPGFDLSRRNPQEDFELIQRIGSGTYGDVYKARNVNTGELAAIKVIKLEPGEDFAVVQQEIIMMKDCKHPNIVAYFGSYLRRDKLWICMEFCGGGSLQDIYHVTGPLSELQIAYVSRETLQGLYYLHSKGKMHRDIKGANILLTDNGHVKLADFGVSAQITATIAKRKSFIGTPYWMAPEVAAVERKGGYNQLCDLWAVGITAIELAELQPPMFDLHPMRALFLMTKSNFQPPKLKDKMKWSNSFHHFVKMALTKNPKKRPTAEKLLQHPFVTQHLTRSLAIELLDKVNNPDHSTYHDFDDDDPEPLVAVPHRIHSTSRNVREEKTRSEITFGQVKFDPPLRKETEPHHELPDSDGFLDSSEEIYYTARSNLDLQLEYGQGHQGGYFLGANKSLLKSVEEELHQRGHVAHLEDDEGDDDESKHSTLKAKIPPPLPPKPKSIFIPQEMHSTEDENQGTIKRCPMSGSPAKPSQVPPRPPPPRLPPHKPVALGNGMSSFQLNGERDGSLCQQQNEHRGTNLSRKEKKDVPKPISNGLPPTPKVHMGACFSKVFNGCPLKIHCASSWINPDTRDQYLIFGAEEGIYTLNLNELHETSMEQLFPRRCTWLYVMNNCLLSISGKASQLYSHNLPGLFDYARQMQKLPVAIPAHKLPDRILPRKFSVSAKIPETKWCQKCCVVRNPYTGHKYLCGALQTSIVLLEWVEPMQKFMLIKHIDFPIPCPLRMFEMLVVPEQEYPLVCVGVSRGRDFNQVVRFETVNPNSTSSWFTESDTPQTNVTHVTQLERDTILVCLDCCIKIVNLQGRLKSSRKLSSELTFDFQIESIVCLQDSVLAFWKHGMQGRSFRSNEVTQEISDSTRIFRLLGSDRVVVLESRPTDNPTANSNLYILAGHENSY
Sequence of LIM domain kinase 2 (Homo sapiens) (P53671 whole entry, looked up, the tested form may be a part): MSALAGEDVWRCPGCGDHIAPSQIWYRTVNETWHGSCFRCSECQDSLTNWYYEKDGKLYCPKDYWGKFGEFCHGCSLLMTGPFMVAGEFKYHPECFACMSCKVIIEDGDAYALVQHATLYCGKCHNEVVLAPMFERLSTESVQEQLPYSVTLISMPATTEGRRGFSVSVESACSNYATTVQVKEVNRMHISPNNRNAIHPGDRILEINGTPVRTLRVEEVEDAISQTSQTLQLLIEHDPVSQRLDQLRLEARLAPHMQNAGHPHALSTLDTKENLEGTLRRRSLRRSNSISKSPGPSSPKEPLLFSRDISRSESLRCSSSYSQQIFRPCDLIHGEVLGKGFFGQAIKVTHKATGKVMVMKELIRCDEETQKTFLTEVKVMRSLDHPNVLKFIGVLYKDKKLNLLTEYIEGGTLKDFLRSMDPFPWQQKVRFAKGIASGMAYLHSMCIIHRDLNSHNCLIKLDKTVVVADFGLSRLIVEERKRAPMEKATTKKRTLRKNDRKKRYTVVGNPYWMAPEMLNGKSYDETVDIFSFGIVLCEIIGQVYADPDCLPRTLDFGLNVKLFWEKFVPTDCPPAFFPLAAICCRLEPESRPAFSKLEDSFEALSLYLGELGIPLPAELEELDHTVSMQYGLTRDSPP
Sequence of Proto-oncogene tyrosine-protein kinase Src (Homo sapiens) (P12931 2-536 limits assumed): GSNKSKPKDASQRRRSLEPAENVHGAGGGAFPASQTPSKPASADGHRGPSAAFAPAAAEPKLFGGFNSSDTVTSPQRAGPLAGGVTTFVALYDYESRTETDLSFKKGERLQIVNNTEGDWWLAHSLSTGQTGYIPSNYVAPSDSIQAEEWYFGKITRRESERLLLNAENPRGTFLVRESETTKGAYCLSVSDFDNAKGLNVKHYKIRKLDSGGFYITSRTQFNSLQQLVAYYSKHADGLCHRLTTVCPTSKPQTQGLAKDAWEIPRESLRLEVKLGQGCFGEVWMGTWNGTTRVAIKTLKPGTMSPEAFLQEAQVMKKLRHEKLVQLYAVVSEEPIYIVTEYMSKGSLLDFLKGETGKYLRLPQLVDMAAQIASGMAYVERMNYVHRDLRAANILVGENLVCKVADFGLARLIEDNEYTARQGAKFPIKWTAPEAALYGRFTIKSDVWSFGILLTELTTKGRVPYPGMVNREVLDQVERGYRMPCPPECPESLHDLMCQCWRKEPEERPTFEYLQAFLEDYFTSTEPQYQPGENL
Sequence of Serine/threonine-protein kinase D1 (Homo sapiens) (Q15139 whole entry): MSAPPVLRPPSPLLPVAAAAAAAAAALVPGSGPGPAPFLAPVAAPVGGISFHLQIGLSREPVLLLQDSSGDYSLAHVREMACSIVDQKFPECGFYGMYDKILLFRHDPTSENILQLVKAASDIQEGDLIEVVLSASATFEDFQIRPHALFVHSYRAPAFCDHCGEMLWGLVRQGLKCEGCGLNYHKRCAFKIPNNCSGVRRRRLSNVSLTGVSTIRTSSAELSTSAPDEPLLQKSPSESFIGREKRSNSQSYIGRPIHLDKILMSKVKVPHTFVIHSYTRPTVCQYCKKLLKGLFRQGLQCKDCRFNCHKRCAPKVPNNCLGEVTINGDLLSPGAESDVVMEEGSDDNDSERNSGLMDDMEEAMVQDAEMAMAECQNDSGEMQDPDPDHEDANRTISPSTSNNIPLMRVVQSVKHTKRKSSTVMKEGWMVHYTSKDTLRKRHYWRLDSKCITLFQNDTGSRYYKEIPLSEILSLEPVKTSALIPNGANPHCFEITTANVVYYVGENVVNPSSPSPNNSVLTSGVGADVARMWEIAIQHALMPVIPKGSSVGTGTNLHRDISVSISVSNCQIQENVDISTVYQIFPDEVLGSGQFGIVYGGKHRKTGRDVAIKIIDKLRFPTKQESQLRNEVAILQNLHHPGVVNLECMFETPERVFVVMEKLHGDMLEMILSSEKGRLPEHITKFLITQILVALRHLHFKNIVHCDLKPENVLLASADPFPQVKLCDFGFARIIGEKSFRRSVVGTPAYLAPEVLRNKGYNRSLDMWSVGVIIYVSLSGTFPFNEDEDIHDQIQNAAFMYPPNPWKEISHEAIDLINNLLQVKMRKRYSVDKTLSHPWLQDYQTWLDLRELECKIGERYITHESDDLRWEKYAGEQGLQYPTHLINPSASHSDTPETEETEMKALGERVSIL
Sequence of Serine/threonine-protein kinase PAK 6 (Homo sapiens) (Q9NQU5 whole entry, looked up): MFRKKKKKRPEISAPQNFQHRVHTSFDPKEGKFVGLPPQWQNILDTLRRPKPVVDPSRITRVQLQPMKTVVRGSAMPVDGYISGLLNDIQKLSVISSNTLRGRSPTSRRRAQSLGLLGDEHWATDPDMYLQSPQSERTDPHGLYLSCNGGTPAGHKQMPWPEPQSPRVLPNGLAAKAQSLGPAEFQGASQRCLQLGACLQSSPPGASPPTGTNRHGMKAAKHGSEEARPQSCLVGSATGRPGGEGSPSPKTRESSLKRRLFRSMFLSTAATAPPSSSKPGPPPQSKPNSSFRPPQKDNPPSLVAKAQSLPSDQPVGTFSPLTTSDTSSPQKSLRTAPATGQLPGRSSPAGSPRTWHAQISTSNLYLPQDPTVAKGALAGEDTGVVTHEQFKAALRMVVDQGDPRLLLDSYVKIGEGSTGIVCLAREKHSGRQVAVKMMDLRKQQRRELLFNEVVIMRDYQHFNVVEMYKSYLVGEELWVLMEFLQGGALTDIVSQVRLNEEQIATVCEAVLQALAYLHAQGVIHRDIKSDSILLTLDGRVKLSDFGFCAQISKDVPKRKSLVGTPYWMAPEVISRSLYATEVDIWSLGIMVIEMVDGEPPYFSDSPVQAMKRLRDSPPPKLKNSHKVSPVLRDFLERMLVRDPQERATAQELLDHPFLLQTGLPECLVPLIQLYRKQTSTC

## Cn1cncc1[C@](O)(COc1ccc(C#N)cc1-c1ccc(OC(F)(F)F)cc1)c1ccc(C#N)cc1 [ABT-100]
[1]
  residual activity: 89%
[2]
  residual activity: 74%
[3]
  inhibition: -0.932%
[4]
  residual activity: 98%
[5]
  residual activity: 77%
[6]
  residual activity: 100%
[7]
  residual activity: 91%
[8]
  residual activity: 97%
[9]
  residual activity: 100%
[10]
  residual activity: 81%
[11]
  residual activity: 100%
[12]
  residual activity: 100%
[13]
  residual activity: 99%
[14]
  residual activity: 100%
[15]
  residual activity: 86%
[16]
  residual activity: 84%
[17]
  residual activity: 100%
[18]
  residual activity: 94%
[19]
  residual activity: 81%
[20]
  residual activity: 100%
[21]
  residual activity: 75%
[22]
  residual activity: 100%
[23]
  residual activity: 89%
[24]
  residual activity: 100%
[25]
  residual activity: 100%
[26]
  residual activity: 100%
[27]
  residual activity: 91%
[28]
  residual activity: 100%
[29]
  residual activity: 100%
[30]
  residual activity: 48%
[31]
  residual activity: 63%
[32]
  residual activity: 93%
[33]
  residual activity: 100%
[34]
  residual activity: 87%
[35]
  residual activity: 79%
[36]
  residual activity: 79%
[37]
  residual activity: 74%
[38]
  inhibition: 5%
[39]
  residual activity: 95%
[40]
  residual activity: 79%
[41]
  residual activity: 76%
[42]
  residual activity: 72%
[43]
  residual activity: 84%
[44]
  residual activity: 71%
Aurora kinase B
  residual activity: 100%
[45]
  residual activity: 95%

## Cn1cncc1[C@@](O)(COc1ccc(C#N)cc1-c1ccc(OC(F)(F)F)cc1)c1ccc(C#N)cc1 [A-108]
[1]
  residual activity: 96%
[2]
  residual activity: 69%
[3]
  inhibition: 6.65%
[4]
  residual activity: 100%
[5]
  residual activity: 97%
[6]
  residual activity: 100%
[7]
  residual activity: 100%
[8]
  residual activity: 100%
[9]
  residual activity: 100%
[10]
  residual activity: 100%
[11]
  residual activity: 100%
[12]
  residual activity: 100%
[13]
  residual activity: 98%
[14]
  residual activity: 94%
[15]
  residual activity: 100%
[16]
  residual activity: 67%
[17]
  residual activity: 100%
[18]
  residual activity: 96%
[19]
  residual activity: 78%
[20]
  residual activity: 100%
[21]
  residual activity: 64%
[22]
  residual activity: 92%
[23]
  residual activity: 100%
[24]
  residual activity: 100%
[25]
  residual activity: 100%
[26]
  residual activity: 100%
[27]
  residual activity: 95%
[28]
  residual activity: 100%
[29]
  residual activity: 93%
[30]
  residual activity: 100%
[31]
  residual activity: 100%
[32]
  residual activity: 97%
[33]
  residual activity: 72%
[34]
  residual activity: 96%
[35]
  residual activity: 74%
[36]
  residual activity: 100%
[37]
  residual activity: 94%
[38]
  inhibition: 8.51%
[39]
  residual activity: 63%
[40]
  residual activity: 84%
[41]
  residual activity: 100%
[42]
  residual activity: 82%
[43]
  residual activity: 100%
[44]
  residual activity: 100%
Aurora kinase B
  residual activity: 100%
[45]
  residual activity: 100%
